Patent publication US12612384B2, “Heterocyclic CYP4A inhibitor compounds and compositions thereof” (MBD CO., LTD., priority 2021, dated 2026)
Like-named read-outs stand apart in the source and are kept apart here.

Biological target: T1, CYP4A (Homo sapiens, UniProt Q02928)
T1 construct: purchased; host or cells: bacterial membranes ('bactosome')
T1 sequence (Q02928 5-519): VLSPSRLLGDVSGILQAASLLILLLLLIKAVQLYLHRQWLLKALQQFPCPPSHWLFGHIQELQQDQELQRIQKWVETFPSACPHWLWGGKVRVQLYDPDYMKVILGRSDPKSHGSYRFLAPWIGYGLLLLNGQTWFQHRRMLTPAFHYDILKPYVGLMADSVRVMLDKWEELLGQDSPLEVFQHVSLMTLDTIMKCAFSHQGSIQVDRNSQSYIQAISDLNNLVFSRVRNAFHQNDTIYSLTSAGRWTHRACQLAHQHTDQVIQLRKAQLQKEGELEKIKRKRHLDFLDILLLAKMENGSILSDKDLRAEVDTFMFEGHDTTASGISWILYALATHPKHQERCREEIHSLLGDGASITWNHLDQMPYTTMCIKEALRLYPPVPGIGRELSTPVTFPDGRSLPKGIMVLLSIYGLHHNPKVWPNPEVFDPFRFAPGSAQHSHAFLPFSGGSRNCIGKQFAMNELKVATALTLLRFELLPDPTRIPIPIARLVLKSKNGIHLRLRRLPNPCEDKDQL
Assay: CYP4A enzyme assay (luminescence, Luciferin-ME)
Assay type: biochemical
Conditions: Compound concentration 5 μM
Method in brief: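 Compounds (5 μM) were preincubated 15 min at room temperature with CYP4A bactosomes in 100 mM KPO4, 0.1% BSA, 1 mM DTT. Reaction ran 30 min at room temperature after adding 5 mM Luciferin-ME and NADPH regeneration system. Luminescence after 15 min with detection reagent; inhibition judged by comparing well signals.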

[1] = Greater than 90%, read-out: % Inhibition Greater than 90%
[2] = 50%-70%, read-out: % Inhibition 50%-70%
[3] = 70%-90%, read-out: % Inhibition 70%-90%

O=C(C1CCN(S(=O)(=O)c2ccc(-c3ccccc3)nc2)C1)N1CCN(c2ccnc3ccccc23)CC1 (stereo not shown) [Example 25, (1-((6-phenylpyridin-3-yl)sulfonyl)pyrrolidin-3-yl)(4-(quinolin-4-yl)piperazin-1-yl)methanone]
inhibition at 5 µM [1]: > 90%

O=C(C1CN(S(=O)(=O)c2cccc([N+](=O)[O-])c2)C1)N1CCN(c2ccnc3cc(F)ccc23)CC1 [Example 71, (4-(7-fluoroquinolin-4-yl)piperazin-1-yl)(1-((3-nitrophenyl)sulfonyl)azetidin-3-yl)methanone]
inhibition at 5 µM [1]: > 90%

Cn1ccnc1S(=O)(=O)N1CC[C@H](C(=O)N2CCN(c3ccnc4cc(F)ccc34)CC2)C1 [Example 7, (S)-(4-(7-fluoroquinolin-4-yl)piperazin-1-yl)(1-((1-methyl-1H-imidazol-2-yl)sulfonyl)pyrrolidin-3-yl)methanone]
inhibition at 5 µM [1]: > 90%

CC(=O)Nc1ccc(C(=O)N2CCCC(C(=O)N3CCN(c4cc(C)nc5ccccc45)CC3)C2)cc1 (stereo not shown) [Example 100, N-(4-(3-(1-(2-methylquinolin-4-yl)piperazine-4-carbonyl)piperidine-1-carbonyl)phenyl)acetamide]
inhibition at 5 µM [2]: 50 to 70%

Cc1cc(N2CCN(C(=O)C3CCCN(S(=O)(=O)c4cccnc4)C3)CC2)c2ccccc2n1 (stereo not shown) [Example 125, (4-(2-methylquinolin-4-yl)piperazin-1-yl)(1-(pyridin-3-ylsulfonyl)piperidin-3-yl)methanone]
inhibition at 5 µM [2]: 50 to 70%

O=C(C1CCN(S(=O)(=O)c2ccc(-c3cccnc3)nc2)C1)N1CCN(c2ccnc3ccccc23)CC1 (stereo not shown) [Example 29, (1-([2,3′-bipyridin]-5-ylsulfonyl)pyrrolidin-3-yl)(4-(quinolin-4-yl)piperazin-1-yl)methanone]
inhibition at 5 µM [1]: > 90%

COc1ccc(C(=O)N2CCCC(C(=O)N3CCN(c4ccnc5cc(OC)ccc45)CC3)C2)cc1 (stereo not shown) [Example 94, (4-(7-methoxyquinolin-4-yl)piperazin-1-yl)(1-(4-methoxyphenylcarbonyl)piperidin-3-yl)methanone]
inhibition at 5 µM [2]: 50 to 70%

Cc1nn(C)c(C)c1S(=O)(=O)N1CC[C@H](C(=O)N2CCN(c3ccnc4ccccc34)CC2)C1 [Example 151, (S)-(4-(quinolin-4-yl)piperazin-1-yl)(1-((1,3,5-trimethyl-1H-pyrazol-4-yl)sulfonyl)pyrrolidin-3-yl)methanone]
inhibition at 5 µM [3]: 70 to 90%

CC(=O)Nc1ccc(C(=O)N2CCCC(C(=O)N3CCN(c4ccnc5ccccc45)CC3)C2)cc1 (stereo not shown) [Example 111, N-(4-(3-(1-(quinolin-4-yl)piperazine-4-carbonyl)piperidine-1-carbonyl)phenyl)acetamide]
inhibition at 5 µM [3]: 70 to 90% | inhibition at 5 µM [1]: > 90%

O=C(c1ccc(F)cc1)N1CCCC(C(=O)N2CCN(c3ccnc4ccccc34)CC2)C1 (stereo not shown) [Example 112, (1-(4-fluorophenylcarbonyl)piperidin-3-yl)(4-(quinolin-4-yl)piperazin-1-yl)methanone]
inhibition at 5 µM [3]: 70 to 90%

O=C([C@H]1CCN(S(=O)(=O)c2ncn[nH]2)C1)N1CCN(c2ccnc3cc(O)ccc23)CC1 [Example 164, (S)-(1-((1H-1,2,4-triazol-5-yl)sulfonyl)pyrrolidin-3-yl)(4-(7-hydroxyquinolin-4-yl)piperazin-1-yl)methanone]
inhibition at 5 µM [1]: > 90%

O=C(C1CCN(S(=O)(=O)c2ccc(Br)cc2)C1)N1CCN(c2ccnc3cc(F)ccc23)CC1 (stereo not shown) [Example 16, (1-((4-bromophenyl)sulfonyl)pyrrolidin-3-yl)(4-(7-fluoroquinolin-4-yl)piperazin-1-yl)methanone]
inhibition at 5 µM [3]: 70 to 90%

Cc1n[nH]c(C)c1S(=O)(=O)N1CCC(C(=O)N2CCN(c3ccnc4ccccc34)CC2)C1 (stereo not shown) [Example 45, (1-((3,5-dimethyl-1H-pyrazol-4-yl)sulfonyl)pyrrolidin-3-yl)(4-(quinolin-4-yl)piperazin-1-yl)methanone]
inhibition at 5 µM [1]: > 90%

COc1ccc2c(N3CCN(C(=O)C4CCCN(C(=O)c5ccc(F)cc5)C4)CC3)ccnc2c1 (stereo not shown) [Example 90, (1-(4-fluorobenzoyl)piperidin-3-yl)(4-(7-methoxyquinolin-4-yl)piperazin-1-yl)methanone]
inhibition at 5 µM [3]: 70 to 90%

O=C([C@H]1CCN(S(=O)(=O)c2ncc[nH]2)C1)N1CCN(c2ccnc3ccc(F)cc23)CC1 [Example 159, (S)-(1-((1H-imidazol-2-yl)sulfonyl)pyrrolidin-3-yl)(4-(6-fluoroquinolin-4-yl)piperazin-1-yl)methanone]
inhibition at 5 µM [1]: > 90%

Cn1ccnc1S(=O)(=O)N1CC[C@@H](C(=O)N2CCN(c3ccnc4cc(F)ccc34)CC2)C1 [Example 6, (R)-(4-(7-fluoroquinolin-4-yl)piperazin-1-yl)(1-((1-methyl-1H-imidazol-2-yl)sulfonyl)pyrrolidin-3-yl)methanone]
inhibition at 5 µM [1]: > 90%

O=C([C@H]1CCN(S(=O)(=O)c2ncc[nH]2)C1)N1CCN(c2ccnc3cc(F)c(F)cc23)CC1 [Example 169, (S)-(1-((1H-imidazol-2-yl)sulfonyl)pyrrolidin-3-yl)(4-(6,7-difluoroquinolin-4-yl)piperazin-1-yl)methanone]
inhibition at 5 µM [1]: > 90%

Cc1cc(N2CCN(C(=O)C3CCCN(S(=O)(=O)c4ccncc4)C3)CC2)c2ccccc2n1 (stereo not shown) [Example 126, (4-(2-methylquinolin-4-yl)piperazin-1-yl)(1-(pyridin-4-ylsulfonyl)piperidin-3-yl)methanone]
inhibition at 5 µM [2]: 50 to 70%

Cn1cnc(S(=O)(=O)N2CC[C@H](C(=O)N3CCN(c4ccnc5cc(F)ccc45)CC3)C2)n1 [Example 139, (S)-(4-(7-fluoroquinolin-4-yl)piperazin-1-yl)(1-((1-methyl-1H-1,2,4-triazol-3-yl)sulfonyl)pyrrolidin-3-yl)methanone]
inhibition at 5 µM [3]: 70 to 90%

COC(=O)c1sccc1S(=O)(=O)N1CCC(C(=O)N2CCN(c3ccnc4ccccc34)CC2)C1 (stereo not shown) [Example 50, methyl 3-((3-(4-(quinolin-4-yl)piperazine-1-carbonyl)pyrrolidin-1-yl)sulfonyl)thiophene-2-carboxylate]
inhibition at 5 µM [3]: 70 to 90%

O=C(C1CCCN(S(=O)(=O)c2ccncc2)C1)N1CCN(c2cc(C(F)(F)F)nc3ccccc23)CC1 (stereo not shown) [Example 128, (1-(pyridin-4-ylsulfonyl)piperidin-3-yl)(4-(2-(trifluoromethyl)quinolin-4-yl)piperazin-1-yl)methanone]
inhibition at 5 µM [2]: 50 to 70%

O=C([C@H]1CCN(S(=O)(=O)c2ncc[nH]2)C1)N1CCN(c2ccnc3cc(F)ccc23)CC1 [Example 146, (S)-(1-((1H-imidazol-2-yl)sulfonyl)pyrrolidin-3-yl)(4-(7-fluoroquinolin-4-yl)piperazin-1-yl)methanone]
inhibition at 5 µM [1]: > 90%

CC(=O)Nc1ccc(S(=O)(=O)N2CCC(C(=O)N3CCN(c4ccnc5cc(F)ccc45)CC3)C2)cc1 (stereo not shown) [Example 1, N-(4-((3-(4-(7-fluoroquinolin-4-yl)piperazine-1-carbonyl)pyrrolidin-1-yl)sulfonyl)phenyl)acetamide]
inhibition at 5 µM [1]: > 90%

O=C([C@H]1CCN(S(=O)(=O)c2cccnc2)C1)N1CCN(c2ccnc3cc(F)ccc23)CC1 [Example 156, (S)-(4-(7-fluoroquinolin-4-yl)piperazin-1-yl)(1-(pyridin-3-ylsulfonyl)pyrrolidin-3-yl)methanone]
inhibition at 5 µM [1]: > 90%

COc1ccc(S(=O)(=O)N2CCC(C(=O)N3CCN(c4ccnc5ccccc45)CC3)C2)cn1 (stereo not shown) [Example 51, (1-((6-methoxypyridin-3-yl)sulfonyl)pyrrolidin-3-yl)(4-(quinolin-4-yl)piperazin-1-yl)methanone]
inhibition at 5 µM [3]: 70 to 90%

COc1ccc(C(=O)N2CCCC(C(=O)N3CCN(c4ccnc5cc(Cl)ccc45)CC3)C2)cc1 (stereo not shown) [Example 88, (4-(7-chloroquinolin-4-yl)piperazin-1-yl)(1-(4-methoxyphenylcarbonyl)piperidin-3-yl)methanone]
inhibition at 5 µM [2]: 50 to 70%

Cc1ncc(-c2ccc(S(=O)(=O)N3CCC(C(=O)N4CCN(c5ccnc6ccccc56)CC4)C3)cc2)cn1 (stereo not shown) [Example 33, (1-((4-(2-methylpyrimidin-5-yl)phenyl)sulfonyl)pyrrolidin-3-yl)(4-(quinolin-4-yl)piperazin-1-yl)methanone]
inhibition at 5 µM [1]: > 90%

O=C(C1CCN(Cc2ccc([N+](=O)[O-])cc2)C1)N1CCN(c2ccnc3ccccc23)CC1 (stereo not shown) [Example 153, (1-(4-nitrobenzyl)pyrrolidin-3-yl)(4-(quinolin-4-yl)piperazin-1-yl)methanone]
inhibition at 5 µM [2]: 50 to 70%

O=C(C1CCCN(S(=O)(=O)c2ccncc2)C1)N1CCN(c2ccnc3cc(Cl)ccc23)CC1 (stereo not shown) [Example 124, (4-(7-chloroquinolin-4-yl)piperazin-1-yl)(1-(pyridin-4-ylsulfonyl)piperidin-3-yl)methanone]
inhibition at 5 µM [3]: 70 to 90%

O=C([C@H]1CCN(S(=O)(=O)c2nccn2CCO)C1)N1CCN(c2ccnc3ccc(F)cc23)CC1 [Example 160, (S)-(4-(6-fluoroquinolin-4-yl)piperazin-1-yl)(1-((1-(2-hydroxyethyl)-1H-imidazol-2-yl)sulfonyl)pyrrolidin-3-yl)methanone]
inhibition at 5 µM [1]: > 90%
